Values of other authors in patent US20240226060A1, “TOPICAL LIPOSOME POLYPHENOL COMPOSITIONS FOR TREATING AND PREVENTING VARIOUS SKIN DISORDERS AND METHODS OF PREPARATION THEREOF” (PANAG PHARMA INC., priority 2021, published 2024).
Where two headings read alike, the source gives them in different places.

What was measured:
[1] = simulated physiological conditions pH 7.4 and 37° C., within 24 hours
epidermolysis bullosa = details: CBD oil, 3 patients
facial skin aging = details: 1% apigenin cream, twice daily, 2 and 4 weeks
[2] = not given; remark: listed apart in the source
[3] = 2% minoxidil in MLVs
facial acne vulgaris = details: for revised Leeds score at week 8: baseline 5.1
[4] = surfactant micelles, U.S. Pat. No. 10,709,748
[5] = twice daily 3 days, 4 hours after last dose
[6] = 1% EGCG, 8 weeks, vs baseline and vehicle

C=C(C)[C@@H]1CCC(C)=C[C@H]1c1c(O)cc(CCCCC)cc1O [CBD, cannabidiol]
encapsulation efficiency [4]: 86%
CBD loss [1]: 10%
patient-reported outcome (epidermolysis bullosa): faster wound healing, less blistering, and amelioration of pain
joint swelling and pain (CFA-induced arthritis; 1% CBD gel on shaved back, 4 days): optimally reduced swelling and alleviated pain
joint swelling and pain (CFA-induced arthritis; 10% CBD gel versus 1%): did not yield additional improvement
CFA-induced edema (CFA-induced arthritis; lower doses (0.1, 0.5% CBD gel)): no effect

CCCCCc1cc(O)c2c(c1)OC(C)(C)[C@@H]1CCC(C)=C[C@@H]21 [THC, tetrahydrocannabinol]
encapsulation efficiency [4]: 92%

O=c1cc(-c2ccc(O)cc2)oc2cc(O)cc(O)c12 [apigenin]
dermal density, skin elasticity, length of fine wrinkles (facial skin aging): Significant improvements
skin moisture content, TEWL and skin texture (facial skin aging): significantly improved
solubility ([2]; ethanol): poor solubility
solubility ([2]; propylene glycol and polyethylene glycol 400): superior solubilities

Oc1ccc(O)cc1 [hydroquinone]
patients presenting with erythema, burning and scaling (melasma; 4% cream in melasma patients): 71%
MASI score reduction from baseline (melasma; 4% cream, after three months): 39%

Clc1ccc(COC(Cn2ccnc2)c2ccc(Cl)cc2Cl)c(Cl)c1 (stereo not drawn) [miconazole nitrate]
encapsulation efficiency (proliposome method with propylene glycol, El-Khordagui et al): 95.6%

Nc1cc(N2CCCCC2)nc(N)[n+]1[O-] [minoxidil]
drug in cumulative urine samples, liposome versus suspension & solution [3]: significant less drug
drug content in dermis, liposome versus suspension & solution [3, 5]: 4-5 fold
drug content in epidermis, liposome versus suspension & solution [3, 5]: 2-3 fold
drug content on skin surface, liposome versus suspension & solution [3, 5]: 3-4 fold

CC(=O)[C@H]1CC[C@H]2[C@@H]3CCC4=CC(=O)CC[C@]4(C)[C@H]3CC[C@]12C [progesterone]
encapsulation efficiency (EE) (DPPC/cholesterol MLVs, thin film hydration, U.S. Pat. No. 4,485,054): 77%

epigallocatechin 3-gallate [EGCG]
revised Leeds score at week 8 (facial acne vulgaris; 1% EGCG hydroalcoholic solution): 1.2
mean inflammatory lesion count decrease (facial acne vulgaris; [6]): 89%
mean noninflammatory lesion count decrease (facial acne vulgaris; [6]): 79%
revised Leeds score at week 8 (facial acne vulgaris; 5% EGCG hydroalcoholic solution): 1.7

isoscutellarein
incorporation efficiency (liposomes, 9 parts egg PC to 2 parts flavonoid, Demetzos et al): 95%
